Assay results taken from ChEMBL document CHEMBL1138391, “Syntheses of hydroxy substituted 2-phenyl-naphthalenes as inhibitors of tyrosinase” (Bioorg Med Chem Lett, 2007).

What follows are compounds tested against T1, Tyrosinase (Agaricus bisporus, UniProt O42713).
T1 sequence (O42713 whole entry): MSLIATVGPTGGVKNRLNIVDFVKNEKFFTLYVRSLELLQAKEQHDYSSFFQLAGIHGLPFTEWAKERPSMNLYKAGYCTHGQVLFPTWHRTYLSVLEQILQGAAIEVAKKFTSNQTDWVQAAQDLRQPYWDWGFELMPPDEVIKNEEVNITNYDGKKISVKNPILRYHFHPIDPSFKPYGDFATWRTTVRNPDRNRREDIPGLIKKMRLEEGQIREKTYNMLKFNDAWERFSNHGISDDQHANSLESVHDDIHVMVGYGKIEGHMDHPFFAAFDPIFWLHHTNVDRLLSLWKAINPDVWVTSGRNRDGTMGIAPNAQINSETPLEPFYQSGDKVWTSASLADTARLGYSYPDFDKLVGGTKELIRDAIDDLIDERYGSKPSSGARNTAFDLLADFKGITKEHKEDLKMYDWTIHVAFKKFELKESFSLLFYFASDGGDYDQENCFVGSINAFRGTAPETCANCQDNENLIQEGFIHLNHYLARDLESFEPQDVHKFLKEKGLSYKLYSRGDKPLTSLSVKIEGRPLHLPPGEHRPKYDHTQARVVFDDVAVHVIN
Description: Inhibition of mushroom tyrosinase

| Structure (SMILES) | IC50 |
| --- | --- |
| Oc1cccc(-c2ccc3cc(O)ccc3c2)c1 | 6.4 µM |
| Oc1cc(O)cc(-c2ccc3cc(O)ccc3c2)c1 | 16.5 µM |
| Oc1ccc2cc(-c3cc(O)c(O)c(O)c3)ccc2c1 | 2.95 µM |
| Oc1ccc(-c2ccc3cc(O)ccc3c2)c(O)c1 | 0.034 µM |
| Oc1cc(O)cc(-c2ccc3cc(O)cc(O)c3c2)c1 | 0.49 µM |
| Oc1ccc(O)cc1 [HYDROQUINONE] | 33.5 µM |
| Oc1ccc(/C=C/c2cc(O)cc(O)c2)cc1 [RESVERATROL] | 55.6 µM |
